From patent publication US10131673B2, “Piperidine substituted tricyclic pyrazolo[1,5-a]pyrimidine derivatives with inhibitory activity on the replication of the respiratory syncytial virus (RSV)” (priority 2014, dated 2018)

Legend:
rgRSV224 virus = experiment: microbe, parasite or virus in culture; format: cell-based, respiratory syncytial virus (RSV); conditions: for EC50: human respiratory syncytial virus, HeLa, 72 h, read-out: RSV HELA pEC50 (converted); for RSV HELA pEC50: rgRSV224 virus MOI=1, HeLa cells, GFP expression three days post-virus exposure

Experimental for HeLa cells: Black 384-well clear-bottom microtiter plates (Corning, Amsterdam, The Netherlands) were filled via acoustic drop ejection using the echo liquid handler (Labcyte, Sunnyvale, Calif.). 200 nL of compound stock solutions (100% DMSO) were transferred to the assay plates. 9 serial 4-fold dilutions of compound were made, creating per quadrant the same compound concentration. The assay was initiated by adding 10 μL of culture medium to each well (RPMI medium without phenol red, 10% FBS-heat inactivated, 0.04% gentamycin (50 mg/mL). All addition steps are done by using a multidrop dispenser (Thermo Scientific, Erembodegem, Belgium). Next, rgRSV224 virus (MOI=1) diluted in culture medium was added to the plates. rgRSV224 virus is an engineered virus that includes an additional GFP gene (Hallak L K, Spillmann D, Collins P L, Peeples M E. Glycosaminoglycan sulfation requirements for respiratory syncytial virus infection; Journal of virology (2000), 74(22), 10508-13) and was in-licensed from the NIH (Bethesda, Md., USA). Finally, 20 μL of a HeLa cell suspension (3,000 cells/well) were plated. Medium, virus- and mock-infected controls were included in each test. The wells contain 0.05% DMSO per volume. Cells were incubated at 37° C. in a 5% CO2 atmosphere. Three days post-virus exposure, viral replication was quantified by measuring GFP expression in the cells by an in house developed MSM laser microscope (Tibotec, Beerse, Belgium). The EC50 was defined as the 50% inhibitory concentration for GFP expression. In parallel, compounds were incubated for three days in a set of white 384-well microtiter plates (Corning) and the cytotoxicity of compounds in HeLa cells was determined by measuring the ATP content of the cells using the ATPlite kit (Perkin Elmer, Zaventem, Belgium) according to the manufacturer's instructions. The CC50 was defined as the 50% concentration for cytotoxicity.

Row | Structure (SMILES) | EC50 (rgRSV224 virus) [nM] | TOX HELA pCC50 (HeLa cells) | RSV HELA pEC50 (rgRSV224 virus)
1 | Cc1ccc(NS(C)(=O)=O)c(C(=O)N2CCCCC2c2cc3nc4c(c(N5CCOCC5)n3n2)CCOC4)c1 (centres unmarked) [Compound P28, N-(4-methyl-2-(2-(9-morpholino-7,8-dihydro-5H-pyrano[3,4-d]pyrazolo-[1,5-a]pyrimidin-2-yl)piperidine-1-carbonyl)phenyl)methane-sulfonamide] | 355 | 4.6 | 
2 | Cc1cccc2ncnc(N3CCCCC3c3cc4nc5c(c(N6CCOCC6)n4n3)CCOC5)c12 (centres unmarked) [Compound P29, 2-(1-(5-methylquinazolin-4-yl)piperidin-2-yl)-9-morpholino-7,8-dihydro-5H-pyrano[3,4-d]pyrazolo[1,5-a]pyrimidine] | 3720 | 4 | 
3 | Cc1cccc2ncnc(N3CCCCC3c3cc4nc5c(c(N6CCOCC6)n4n3)COCC5)c12 (centres unmarked) [Compound P30, 2-(1-(5-methylquinazolin-4-yl)piperidin-2-yl)-9-morpholino-6,8-dihydro-5H-pyrano[4,3-d]pyrazolo[1,5-a]pyrimidine] | 282 | 4 | 
4 | Cc1cccc2nc(NS(C)(=O)=O)nc(N3CCCCC3c3cc4nc5c(c(N6CCOCC6)n4n3)COCC5)c12 (centres unmarked) [Compound P32, N-(5-methyl-4-(2-(9-morpholino-6,8-dihydro-5H-pyrano[4,3-d]pyrazolo-[1,5-a]pyrimidin-2-yl)piperidin-1-yl)quinazolin-2-yl)methanesulfonamide] | 55 | 4 | 
5 | CCOc1nc(N2CCCCC2c2cc3nc4c(c(N5CCOCC5)n3n2)COCC4)c2c(C)cccc2n1 (centres unmarked) [Compound P33, 2-(1-(2-ethoxy-5-methylquinazolin-4-yl)piperidin-2-yl)-9-morpholino-6,8-dihydro-5H-pyrano[4,3-d]pyrazolo[1,5-a]pyrimidine] | 813 | 4.4 | 
6 | Cc1ccc(NS(C)(=O)=O)c(C(=O)N2CCCCC2c2cc3nc4c(c(N5CCOCC5)n3n2)COCC4)c1 (centres unmarked) [Compound P34, N-(4-methyl-2-(2-(9-morpholino-6,8-dihydro-5H-pyrano[4,3-d]pyrazolo-[1,5-a]pyrimidin-2-yl)piperidine-1-carbonyl)phenyl)methanesulfonamide] | 20.9 | 4.6 | 
7 | Cc1cccc2ncnc(N3CCCCC3c3cc4nc5c(c(C)n4n3)CCCC5)c12 (centres unmarked) [Compound P35, 9-methyl-2-(1-(5-methylquinazolin-4-yl)piperidin-2-yl)-5,6,7,8-tetrahydropyrazolo[5,1-b]quinazoline] | 776 | 4.6 | 
8 | Cc1cccc2ncnc(N3CCCC[C@@H]3c3cc4nc5c(c(C)n4n3)CCCC5)c12 [Compound P37] |  | 4.4 | 5.11
9 | Cc1cccc2ncnc(N3CCCC[C@H]3c3cc4nc5c(c(C)n4n3)CCCC5)c12 [Compound P38] |  | 4.6 | 6.79
10 | Cc1nc2cc([C@H]3CCCCN3c3ncnc4cccc(C)c34)nn2c2c1CCCC2 [Compound P39] |  | 4.9 | 5.55
11 | Cc1nc2cc([C@@H]3CCCCN3c3ncnc4cccc(C)c34)nn2c2c1CCCC2 [Compound P40] |  | 4.7 | 6.7
12 | Cc1cccc2nc(NS(C)(=O)=O)nc(N3CCCCC3c3cc4nc5c(c(N6CCOCC6)n4n3)CCC5)c12 (centres unmarked) [Compound P41, N-(5-methyl-4-(2-(8-morpholino-6,7-dihydro-5H-cyclopenta[d]pyrazolo-[1,5-a]pyrimidin-2-yl)piperidin-1-yl)quinazolin-2-yl)methanesulfonamide] | 229 | 4 | 
13 | Cc1cccc2ncnc(N3CCCCC3c3cc4nc5c(c(N(C)C)n4n3)CCN5C)c12 (centres unmarked) [Compound P42, N,N,5-trimethyl-2-(1-(5-methylquinazolin-4-yl)piperidin-2-yl)-6,7-dihydro-5H-pyrazolo[1,5-a]pyrrolo[2,3-d]pyrimidin-8-amine] | 16.6 | 4.6 | 
